According to US11919858B2, “Aminonapthoquinone compounds and pharmaceutical composition for blocking ubiquitination-proteasome system in diseases” (Calgent Biotechnology Co., Ltd., priority 2015, dated 2024):
Read-outs that look alike come from different tables or passages of the source.

What was measured:
A431 = test: Growth inhibition assay; format: cell-based; settings: Homo sapiens, A-431; A431 (Skin cancer), 48 hours
Description: (§1) Cells were seeded in 96-well plastic plates and exposed to MPT0L056 for 48 hours. Cell viability was assessed using the 3-(4,5-dimethylthiazol-2-yl)-2,5-diphenyltetrazolium bromide assay. Growth inhibition was expressed as the percentage of surviving cells in drug-treated versus DMSO-treated control cells.

A549 = test: Growth inhibition assay; format: cell-based; settings: Homo sapiens; A549 (Lung cancer), 48 hours
Description: as §1

H33HJ-JA1 = test: Growth inhibition assay; format: cell-based; settings: H33HJ-JA1 (T cell lymphoma), 48 hours
Description: as §1

Hepatocytes = test: Growth inhibition assay; format: cell-based; settings: Hepatocyte; Hepatocytes (Normal cells), 48 hours
Description: as §1

KATO III = test: Growth inhibition assay; format: cell-based; settings: Homo sapiens; KATO III (Stomach cancer), 48 hours
Description: as §1

NHDF = test: Growth inhibition assay; format: cell-based; settings: Homo sapiens; NHDF (Normal cells), 48 hours
Description: as §1

OVCAR3 = test: Growth inhibition assay; format: cell-based; settings: Homo sapiens, OVCAR-3; OVCAR3 (Ovarian cancer), 48 hours
Description: as §1

PC-3 = test: Growth inhibition assay; format: cell-based; settings: Homo sapiens; PC-3 (Prostate cancer), 48 hours
Description: as §1

REH = test: Growth inhibition assay; format: cell-based; settings: Homo sapiens; REH (B cell leukemia), 48 hours
Description: as §1

Ramos = test: Growth inhibition assay; format: cell-based; settings: Homo sapiens; Ramos (B cell leukemia), 48 hours
Description: as §1

SK-MEL-5 = test: Growth inhibition assay; format: cell-based; settings: Homo sapiens; SK-MEL-5 (Melanoma), 48 hours
Description: as §1

T98 = test: Growth inhibition assay; format: cell-based; settings: Homo sapiens; T98 (Brain cancer), 48 hours
Description: as §1

U-87 MG = test: Growth inhibition assay; format: cell-based; settings: Homo sapiens; U-87 MG (Brain cancer), 48 hours
Description: as §1

[1] = test system: HCT116 human colorectal adenocarcinoma; settings: for Logrank Significance: compared to Group 1
Description: MPT0L056 was used to evaluate for activity against the HCT116 human colorectal adenocarcinoma.
However, MPT0E028 was administered orally (p.o.) in 1.0% CMC and 0.5% Tween 80 and given dose at 25 mg/kg daily to end schedule.
Each animal was euthanized when the tumors reached the predetermined endpoint size of 1,000 mm^3. The time to endpoint (TTE) for each mouse was calculated by the following equation:
[formula] where TTE is expressed in days, endpoint volume is in mm^3, b is the intercept, and m is the slope of the line obtained by linear regression of a log-transformed tumor growth data set. The data set is comprised of the first observation that exceeded the study endpoint volume and the three consecutive observations that immediately preceded the attainment of the endpoint volume. The calculated TTE is usually less than the day on which an animal is euthanized for tumor size. […] An animal classified as having died from treatment-related (TR) causes or non-treatment-related metastasis (NTRm) causes was assigned a TTE value equal to the day of death. An animal classified as having died from non-treatment-related (NTR) causes was excluded from TTE calculations.
Treatment efficacy was determined from tumor growth delay (TGD), which is defined as the increase in the median TTE for a treatment group compared to the control group: TGD=T−C, expressed in days, or as a percentage of the median TTE of the control group:
[formula] where: • T=median TTE for a treatment group, • C=median TTE for control Group 1.
Treatment efficacy was also determined from the tumor volumes of animals remaining in the study on the last day, and from the number of regression responses. The MTV(n) is defined as the median tumor volume on D59 in the number of animals remaining, n, whose tumors have not attained the endpoint volume.
Treatment may cause a partial regression (PR) or a complete regression (CR) of the tumor in an animal. […] An animal with a CR at the termination of a study is additionally classified as a tumor-free survivor (TFS).
Animals were weighed daily for the first five days, then twice weekly until the completion of the study. The mice were examined frequently for overt signs of any adverse, drug-related side effects. Acceptable toxicity for the MTD of cancer drugs is defined as a group mean BW loss of 20% or less during the test, and not more than one TR death among ten animals. A death is classified as TR if there is evidence of treatment side effects from clinical signs and/or necropsy or from unknown causes during dosing period or within 10 days of the last dose. A death is classified as NTR if there is no evidence that the death was related to treatment side effects.
The logrank test was used to determine the statistical significance of the difference between the TTE values of two groups, except any NTR deaths. Statistical and graphical analyses were performed with Prism 3.03 (GraphPad) for Windows. The two-tailed statistical analyses were conducted at P=0.05. Kaplan-Meier plots show the percentage of animals remaining in the study versus time. The Kaplan-Meier plots use the same data set as the log rank test. The tumor growth curves show the group median tumor volume, on a log scale as a function of time.

[2] = Group 1 vs 4: MPT0L056 100 mg/kg
[3] = Group 4: MPT0L056 100 mg/kg po qd to endpoint
[4] = Group 5: MPT0L056 50 mg/kg po qd to endpoint
[5] = Group 7: MPT0L056 100 mg/kg po qd + MPT0E028 25 mg/kg po qd to endpoint
[6] = Group 8: MPT0L056 50 mg/kg po qd + MPT0E028 25 mg/kg po qd to endpoint

## O=C(Nc1ccncc1)c1ccc(CNC2=C(Cl)C(=O)c3ccccc3C2=O)cc1 [MPT0L056]
A431
  GI50: 1200 nM
A549
  GI50: > 5000 nM
H33HJ-JA1
  GI50: 1800 nM
Hepatocytes
  GI50: 30000 nM
KATO III
  GI50: 2400 nM
NHDF
  GI50: 6300 nM
OVCAR3
  GI50: 1900 nM
PC-3
  GI50: 2500 nM
REH
  GI50: 2800 nM
Ramos
  GI50: 890 nM
SK-MEL-5
  GI50: 210 nM
T98
  GI50: 5700 nM
U-87 MG
  GI50: 2500 nM
[1]; [2]
  Hazard Ratio: 4.135
  Median survival: 48.55
  Median survival Ratio: 0.4876
[1]; Group 1 vs 5: 50 mg/kg
  Hazard Ratio: 1.959
  Median survival: 29.95
  Median survival Ratio: 0.7579
[1]; [3]
  Day of Max % BW Loss: 6 days
  MTV (n) Day 59: 160 mm^3
  Max % BW Loss: −2.3%
  Median TTE: 48.5 days
  No. of NTR: 0
  No. of TR: 0
  T-C: 25.8 days
  antitumor activity (logrank analysis): produced significant antitumor activity
  Logrank Significance: ** (** = P < 0.01)
[1]; Group 4: MPT0L056 100 mg/kg po qd to endpoint, 100 mg/kg
  % TGD: 114%
[1]; [4]
  Day of Max % BW Loss: 5 days
  MTV (n) Day 59: 975 mm^3
  Max % BW Loss: −3.8%
  Median TTE: 30.0 days
  No. of LTTFS: 0
  No. of NTR: 2
  No. of TR: 0
  T-C: 7.3 days
  antitumor activity (logrank analysis): but not 50 mg/kg (P=0.2087), produced significant antitumor activity
[1]; Group 5: MPT0L056 50 mg/kg po qd to endpoint, 50 mg/kg
  % TGD: 32%
[1]; [5]
  % TGD: 50%
  Day of Max % BW Loss: 5 days
  Max % BW Loss: −8.4%
  Median TTE: 34.0 days
  No. of CR: 0
  No. of LTTFS: 0
  No. of NTR: 0
  No. of PR: 0
  No. of TR: 0
  T-C: 11.3 days
[1]; [6]
  % TGD: 100%
  Day of Max % BW Loss: 3 days
  Max % BW Loss: −9.5%
  Median TTE: 45.3 days
  No. of LTTFS: 0
  T-C: 22.6 days
  synergistic effect of antitumor activity (logrank analysis): significant synergistic effect of antitumor activity
  Logrank Significance: ** (** = P < 0.01)
